The results in this text go back to patent US11813244B2, “Agent for eliminating senescent cells” (NIIGATA UNIVERSITY, priority 2016, dated 2023).

Entries after “also recorded” stand apart in the source; their conditions may differ.

Assay [1] has as its system human umbilical cord vein derived vascular endothelial cells (HUVECs). The experiment in a line: Cell viability of young and aged HUVECs (ApoTox-Glo Triplex Assay). As to conditions: 48 hours, 2DG 1 mM, 3HB 20 mM, AIC 200 μM; for selectivity of the effects for aged versus young cells: aged (15 passages or more) vs young (less than 10 passages) HUVECs, viability and apoptosis; for cell viability: young and aged HUVECs, relative to Con. It is filed as cell-based. How it is done: (§1) Specifically, human umbilical cord vein derived vascular endothelial cells (HUVECs, Lonza) were cultured in a prescribed culture medium (EBM-2/EGM-2, Lonza). Less than 10 passages were defined as young and 15 passages or more were defined as aged. For young or aged HUVEC, 2DG, 3HB, and AIC were added to the culture solutions at the concentrations of 1 mM, 20 mM, and 200 μM, respectively, and the cells were harvested after 48 hours. The collected cells were evaluated for viability by fluorescence/absorbance measurements using ApoTox-Glo™ Triplex Assay kit (Promega). Dead cells were stained using AnnexinV (Becton & Dickinson (BD)), PI (Sigma-Aldrich), and Hoechst 33258 (Invitrogen), and the percentage of apoptosis-induced cells was quantified by FACS analysis.

Assay [2] has the same test system. Description: Apoptosis induction in young and aged HUVECs (AnnexinV/PI/Hoechst 33258, FACS analysis). The assay is classed as cell-based. The note with it: 48 hours, relative to Con, 2DG 1 mM, 3HB 20 mM, AIC 200 μM. How it is done: as §1
For assay [3], the system named is p53 protein. The experiment in a line: Western blotting of p53 protein in visceral adipose tissue of obesity model mice. The assay is classed as in vivo, mice (C57BL/6NCr). The note with it: canagliflozin 0.03% w/w in diet, one week. How it is done: (§2) Four-week-old wild-type mice (C57BL/6NCr) were fed with high fat diets for 8 weeks to prepare diet-induced obesity model mice. Then, canagliflozin, an SGLT2 inhibitor, was administered orally to the prepared obesity model mice by mixing with the diet at the concentration of 0.03% w/w (hereinafter referred to as “high fat diet+SGLT2i group”).
Specifically, expression level of p53 protein was measured by Western blotting using a portion of the visceral adipose tissues collected in Experimental Example 2. Type 1C12 (CST) was used as the anti-p53 antibody. Anti-β-actin antibody (type 13E5, CST) was used as the antibody to detect β-actin protein, which is the loading control.
(In general: In western blotting, separated proteins are transferred to a membrane and probed.)

Assay [4] is described as follows: Metabolome analysis of blood and various tissues of mice after short-term administration of the SGLT2 inhibitor. It is filed as in vivo. The source says: It is known that SGLT2 inhibition accelerates fatty acid oxidation and suppresses glycolysis, and that acceleration of glycolysis is observed in senescent cells. Then, whether 3-hydroxybutyrate (hereinafter referred to as “3HB”), AICAR (hereinafter referred to as “AIC”), and 2-deoxyglucose (hereinafter referred to as “2DG”) that has an inhibitory effect on glycolysis have effects to induce apoptosis of senescent cells were examined.

The subject of assay [5] is senescent cells in blood vessels. The experiment in a line: Senescence-associated β-galactosidase staining of blood vessels of atherosclerotic model mice. It is filed as in vivo, ApoE-deficient (ApoE−/−) mice. The note with it: ApoE−/− mice on high fat diet 12 weeks, canagliflozin 0.03% w/w in diet, 2 weeks, vs HFD group. From the text:
(§3) Then, the senescent cells in the visceral adipose tissues collected from the mice of each group were detected according to the conventional method (Dimri, G. P. et al., Proc. Natl. Acad. Sci. U.S.A., 92(20), 9363-9367, 1995). Specifically, each of the visceral adipose tissues was stained with senescence-associated acidic β-galactosidase and the senescent cells were detected. The senescent cells were stained blue by this staining.
Four-week-old ApoE-deficient (ApoE^−/−) mice were fed with high fat diets for 12 weeks, followed by oral administration of canagliflozin, an SGLT2 inhibitor, mixed in the diet at the concentration of 0.03% w/w (hereinafter referred to as “HFD+SGLT2i group”). For comparison, the same mice as described above with the exception of not administering canagliflozin (hereinafter referred to as “HFD group”) were prepared. The blood vessels (from the aorta base to the descending aorta on the diaphragm) were collected from the mice of each group 2 weeks after starting administration of canagliflozin. Subsequently, the senescent cells in blood vessels collected from the mice of each group were detected according to the method described in Experimental Example 2. The stainability was measured at a part ranging from the ascending aorta to the branch of the arch left subclavian artery.

Assay [6] relates to p16 and p21 mRNA in heart, kidney, skeletal muscle (quadriceps), and brown adipose tissue. Description: Quantitative RT-PCR of p16 and p21 in organs other than visceral adipose tissue of obesity model mice. The assay is classed as in vivo, mice (C57BL/6NCr). The note with it: SGLT2 inhibitor administration for 7 days. How it is done: as §2
(§4) Specifically, RNA was extracted with RNA-Bee™ (Tel-Test) from a portion of the visceral adipose tissue (epididymal adipose tissue) collected from the mice of each group 3 days and 1 week after starting administration of canagliflozin. The collected RNA was quantified by Nanodrop (Thermo), and cDNA was then prepared from 1 μg of the RNA using QuantiTect Reverse Transcription Kit (Quiagen). This cDNA was used to quantify the relative expression of mRNAs of p21 and p16 using Actb as the housekeeping gene by quantitative RT-PCR method using Light Cycler 480 (Roche), and TaqMan Universal Probe Library and the Light Cycler Master (Roche). The primers for each RNA were designed using the Probe finder on the Roche website.
Specifically, mRNA expression levels of p16 and p21 in heart, kidney, skeletal muscle (quadriceps), and brown adipose tissue, which were collected from the same mice when the visceral adipose tissue was collected in Experimental Example 2, were quantified using the same methods described in Experimental Example 4.

In assay [7] the test system is senescent cells in the visceral adipose tissues. Description: Senescence-associated acidic β-galactosidase staining of visceral adipose tissue of diet-induced obesity model mice. The assay is classed as in vivo, mice (C57BL/6NCr). The note with it: canagliflozin 0.03% w/w in diet, one week. How it is done:
as §2
For comparison, four-week-old wild-type mice (C57BL/6NCr) fed with normal diets for 8 weeks (hereinafter referred as “normal diet group”) and obesity model mice prepared in the same manner as described above with the exception of not administering canagliflozin (hereinafter referred to as “high fat diet group”) were prepared.
The visceral adipose tissues (epididymal adipose tissues) were collected from the mice of each group one week after starting administration of canagliflozin in Experimental Example 1.
as §3

The subject of assay [8] is Hutchinson-Gilford progeria model mice (Zmpste24-deficient mice). Description: General condition of Hutchinson-Gilford progeria model mice. It is filed as in vivo. The note with it: canagliflozin 0.03% w/w in diet, 3 to 4 weeks, KO+SGLT2i vs KO. From the text:
Canagliflozin, an SGLT2 inhibitor, mixed in a diet at the concentration of 0.03% w/w was orally administered to 13-week-old Hutchinson-Gilford progeria model mice (Zmpste24-deficient mice), and the general condition of the mice was observed.

Assay [9] concerns p21 (Cdkn1a) and p16 (Cdkn2a) mRNA. Description: Quantitative RT-PCR of senescence markers p21 (Cdkn1a) and p16 (Cdkn2a) in visceral adipose tissue of obesity model mice. It is filed as in vivo, mice (C57BL/6NCr). As to conditions: canagliflozin 0.03% w/w in diet, 3 days and 1 week, relative to Actb. How it is done: as §2, §4
Assay [10] has as its system visceral adipose tissue. The experiment in a line: Adipose inflammation and oxidative stress in adipose tissue of obesity model mice (HE, DHE, F4/80 staining, CCL2 and TNFα RT-PCR). It is filed as in vivo, mice (C57BL/6NCr). The note with it: visceral fat. The method, then:
as §2
Specifically, a portion of the visceral fat collected in Experimental Example 4 was immersed and fixed with 10% Mildform (Wako) for at least 24 hours. The sample was dehydrated and embedded in paraffin, and sliced into 5-μm thick. The slices were stuck on slides and subjected to hematoxylin-eosin (HE) staining, dihydroethidium (DHE) staining, or immunofluorescent staining with F4/80 antibody. The stained slices were imaged using Biorevo (Keyence Co.), or where necessary, using confocal microscopy. For the HE staining, the images were photographed at 400× magnification, and the mean number of the crown like structures per one 40× field of view was counted as well. For the DHE staining, the percentage (%) of a red color value equal to or greater than a certain value relative to a randomly photographed 400× image per one field of view was measured using ImageJ. For the Immunofluorescent staining with F4/80 antibody, percentage (%) of F4/80 positive cells per nucleus in one field of view was measured. In addition, mRNAs of CCL2 and TNFα were quantified by quantitative RT-PCR method according to the method described in Experimental Example 4.

Setting [11] is: SGLT2 inhibitor administration for 3 days and 7 days.
The mark [12] stands for this setting: SGLT2 inhibitor administration for 7 days.

In the case of `O=CC[C@@H](O)[C@H](O)[C@H](O)CO` [2DG, 2-deoxyglucose], in assay [1], the “selectivity of the effects for aged versus young cells” value (“selectivity of the effects” for short) is “in an aged cell-selective manner” and the cell viability entry is reported as “decrease of the cell viability”. Further, in assay [2], the “apoptosis induction (percentage of apoptotic cells)” value is listed as “increase the apoptosis induction”.

Consider `CC(O)CC(=O)O` (stereo not shown) [3HB, 3-hydroxybutyrate], for which, in assay [1], the “selectivity of the effects” value is listed as “in an aged cell-selective manner” and the cell viability entry was “decrease of the cell viability”. For the same molecule, in assay [2], the “apoptosis induction (percentage of apoptotic cells)” value is listed as “increase the apoptosis induction”.

Regarding `NC(=O)c1ncn([C@@H]2O[C@H](CO)[C@@H](O)[C@H]2O)c1N` [AIC, 5-Aminoimidazole-4-carboxamide-1-β-D-ribofuranoside], in assay [1], the “selectivity of the effects” value is “not in an aged cell-selective manner; also recorded: more potent effects in the young cells” and the cell viability entry is “decreased cell viability”. For the same molecule, the “apoptosis induction (percentage of apoptotic cells)” value in assay [2] was “increased apoptosis induction”.

With `Cc1ccc([C@@H]2O[C@H](CO)[C@@H](O)[C@H](O)[C@H]2O)cc1Cc1ccc(-c2ccc(F)cc2)s1` [canagliflozin, (1S)-1,5-Anhydro-1-C(-3{[5-(4-fluorophenyl)thiophen-2-yl]methyl}-4-methylphenyl)-D-glucitol], the “expression level of p53 in the visceral adipose tissue (Western blotting)” value in [3] is on record as “significantly lowered”. Besides, in [4], the AICAR in blood result is recorded as “significant increase of AICAR”; the “ketone body concentration in blood and each tissue” value was “increase of ketone body concentration in blood and each tissue”. In addition, in assay [5], the “senescent cells in blood vessels (senescence-related β-galactosidase stainability)” value is given as “decreased the senescent cells stained blue”. For the same molecule, in assay [6], the “mRNA levels of p16 in the brown adipose tissue” value was “tended to decrease”, the “mRNA levels of p16 in the kidney” value was “tended to decrease”, the “mRNA levels of p21 in the heart” value is listed as “tended to decrease” and the “mRNA levels of p21 in the kidney” value is “tended to decrease”. In addition, the “mRNA levels of p21 in the skeletal muscle” value in assay [6] was “tended to decrease”. In assay [7] (high fat diet+SGLT2i group mice), the “inflammation at the visceral fat” value is listed as “alleviation of inflammation at the visceral fat was also observed”. Further, the “senescent cells in the visceral adipose tissue (senescence-associated acidic β-galactosidase staining)” value in [7] (obesity model mice, oral, vs high fat diet group) is recorded as “significantly decreased the senescent cells in the visceral adipose tissue”. The “deterioration of hair consistency and alopecia” value in assay [8] is on record as “reduced”. In addition, in assay [9], the “p16 mRNA levels in visceral adipose tissue” value is recorded as “a similar trend was observed for p16” and the “p21 mRNA levels in visceral adipose tissue” value was “significantly suppressed the increase of p21 mRNA levels”. Besides, in assay [10] (setting [11]), the “mRNA expression of CCL2” value was “tended to decrease”, the “mRNA expression of TNFα” value is reported as “tended to decrease” and the “macrophage infiltration into adipose tissue (immunofluorescent staining with F4/80)” value is on record as “macrophage infiltration into adipose tissue remained”. Besides, in assay [10] (setting [12]), the “infiltration of macrophages and CLS structures (HE staining, number of CLS)” value is “significantly decreased”; the “oxidative stress (DHE staining, DHE positive area)” value is reported as “significantly suppressed”.
